Paper PMC11372076, “A dual inhibitor of PIP5K1C and PIKfyve prevents SARS-CoV-2 entry into cells” (Experimental & Molecular Medicine, 2024)

Assays:
[1] = tested on: RPE1 cells; assay: Autophagic flux assay (LC3-II turnover with bafilomycin A1); format: cell-based; settings: 1 μM, 2 h, normal growth media
From the text: Fig. 2 UNI418 inhibits autophagy. a Western blot analysis of p62, LC3B-I, LC3B-II and GAPDH in the presence of UNC3230, apilimod and UNI418. b Immunofluorescence staining with LC3B (green) and p62 (red) antibodies upon treatment with UNC3230, apilimod and UNI418, and images within the white rectangular boxes are magnified on the right side. Scale bar, 20 µm. c The area of fluorescence intensity from immunofluorescence images (b) was quantified after UNC3230, apilimod and UNI418 treatments. d, e Quantification of autophagic flux under normal conditions and under HBSS-induced starvation conditions with or without UNI418 treatment. […]
The whole cell extracts were prepared by lysis of harvested cells with M -PER Mammalian protein extraction reagent (Thermo Fisher Scientific). The protein concentrations were determined by Bradford protein assay (Bio- Rad). […] The images were obtained and quantified by Fusion solo ChemiDoc system (Vilber).
Autophagic flux assay was analyzed essentially as previously described1,2.
Briefly, RPE1 cells were treated with UNI418 (0, 0.5, or 1 µM) for 2 h with/without bafilomycin A1 to inhibit lysosomal degradation under normal growth media or HBSS. […] The LC3- II bands were quantified using Fusion Solo ChemiDoc system (Vilber) and normalized to GAPDH bands. […]

[2] = tested on: HEK293T cells stably expressing mCherry-GFP-LC3; assay: mCherry-GFP-LC3 tandem fluorescent protein quenching assay; format: cell-based; settings: 0.5 μM, within 6 h
Experimental: HEK293T cells at a density of 1.6 × 10^4 cells per well in 96-well plates (Nunc) were stained with Hoechst (Cayman Chemical Company, 33342) for 10 min. The cells were washed with PBS two times and incubated with prewarmed media supplemented with 10% FBS. Cells were treated with UNI418 in prewarmed media. Images were acquired in a time-dependent manner and quantified with an ImageXpress high-content screening system (Molecular Devices, San Jose, CA, USA).
Fig. 3 UNI418 negatively affects autophagosome-lysosome fusion and endosome acidification. a Live-cell imaging of HEK293T cells stably expressing mCherry-GFP-LC3 treated with 0.5 μM UNI418 at the indicated time points; the images within the white rectangular boxes are magnified on the right side. Scale bar, 30 µm. The number (b) and area (c) of GFP-positive dots per cell were quantified by ImageXpress. d Immunofluorescence images illustrating the inhibition of endolysosomal acidification by UNI418. Vero cells were treated with the mock control or 1 µM UNC3230, apilimod or UNI418 for 1 h at 37 °C. […] The cells were analyzed by confocal microscopy using two emission wavelengths at 493–560 (green) and 590–720 nm (red) after excitation at 488 nm. […] The green-to-red fluorescence intensity ratio (e) and the area of fluorescent spots (f) were quantified. b, c, e, f The data are presented as the means ± SEMs, with a minimum of 200 spots. […]

[3] = tested on: RPE1 cells; assay: LAMP1 accumulation (Western blot and immunofluorescence); format: cell-based
From the text: Supplementary Fig. 9 UNI418 is not a simple lysosomotropic agent. a Western blot of LAMP1 with UNI418 and Chloroquine. GAPDH was used as a loading control. NT, not treated. b Immunofluorescence images showing accumulation of LAMP1 in RPE1 cells with the indicated concentration of Chloroquine and UNI418 treatment, and images within the white rectangular boxes are zoomed in on the right side. Scale bar, 20 µm. c The mean of intensity in individual cell was quantified. Data presented as mean ± SEMs, n >20.
Significance was determined by Student’s t-test, ***p < 0.001.
(§1) (1 picture or pasted object on this page, not shown here)

[4] = tested on: ACE2-mediated endocytosis in HEK293T cells; format: cell-based; settings: 0.5 μM compound, 20 μg/mL spike-RBD, 2 h
[5] = molecular target: PIKFYVE (Homo sapiens, UniProt Q9Y2I7); assay: Eurofins kinase assay service (Kd); format: binding
Experimental: Supplementary Fig. 2 UNI418 inhibits PIP5K1B/C and PIKfyve. a Inhibition graph of PIP5K1 kinases at the 10 point titration with UNI418. IC 50 value of PIP5K1 kinases was analyzed by Thermo Fisher Scientific’s SelectScreen kinase profiling service. b Kd (nM) values of PIP5K1C and PIKfyve inhibition were determined using the Eurofins kinase assay service.
as §1

[6] = tested on: Wuhan-Hu-1 spike-pseudotyped virus; assay: microbe, parasite or virus in culture; format: cell-based, SARS-CoV-2
[7] = tested on: Vero cells; assay: Endosomal pH change test with acridine orange; format: cell-based; settings: 1 µM for 1 h
Experimental: This image-based experiment was performed according to our previous report with some modifications. Vero cells were cultured in a glass bottom 35 mm dish (6 × 10^4 cells per well) overnight. Each compound, including 1 µM UNC3230, apilimod or UNI418, was added to Vero cells for 1 h at 37 °C. The cells were stained with acridine orange (Sigma‒Aldrich, A9231) at a final concentration of 4 µg/mL for 30 min. After washing with PBS twice, images were acquired using a confocal microscope (Zeiss LSM 700, Baden-Württemberg, Germany) at two emission wavelengths, 493 to 560 nm and 590 to 720 nm, with excitation at 488 nm. The green-to-red ratio or vacuole size was measured using the built-in software ZEN 3.1.
Fig. 3 UNI418 negatively affects autophagosome-lysosome fusion and endosome acidification. a Live-cell imaging of HEK293T cells stably expressing mCherry-GFP-LC3 treated with 0.5 μM UNI418 at the indicated time points; the images within the white rectangular boxes are magnified on the right side. Scale bar, 30 µm. The number (b) and area (c) of GFP-positive dots per cell were quantified by ImageXpress. d Immunofluorescence images illustrating the inhibition of endolysosomal acidification by UNI418. Vero cells were treated with the mock control or 1 µM UNC3230, apilimod or UNI418 for 1 h at 37 °C. Acridine orange (4 µg/mL) was added to the compound-treated live cells, followed by additional incubation for 30 min. The cells were analyzed by confocal microscopy using two emission wavelengths at 493–560 (green) and 590–720 nm (red) after excitation at 488 nm. Merged images are presented, and images within the white rectangular boxes are magnified on the right side. Original magnification, 630×. The green-to-red fluorescence intensity ratio (e) and the area of fluorescent spots (f) were quantified. b, c, e, f The data are presented as the means ± SEMs, with a minimum of 200 spots. Statistical significance was determined by Student’s t test; *p < 0.05, **p < 0.01, ***p < 0.001 and ****p < 0.0001. n.s., not significant.

[8] = tested on: cathepsin D; assay: Cathepsin D maturation by Western blot; format: cell-based
[9] = tested on: SARS-CoV-2; format: cell-based

Sequence of PIKFYVE (Q9Y2I7 whole entry): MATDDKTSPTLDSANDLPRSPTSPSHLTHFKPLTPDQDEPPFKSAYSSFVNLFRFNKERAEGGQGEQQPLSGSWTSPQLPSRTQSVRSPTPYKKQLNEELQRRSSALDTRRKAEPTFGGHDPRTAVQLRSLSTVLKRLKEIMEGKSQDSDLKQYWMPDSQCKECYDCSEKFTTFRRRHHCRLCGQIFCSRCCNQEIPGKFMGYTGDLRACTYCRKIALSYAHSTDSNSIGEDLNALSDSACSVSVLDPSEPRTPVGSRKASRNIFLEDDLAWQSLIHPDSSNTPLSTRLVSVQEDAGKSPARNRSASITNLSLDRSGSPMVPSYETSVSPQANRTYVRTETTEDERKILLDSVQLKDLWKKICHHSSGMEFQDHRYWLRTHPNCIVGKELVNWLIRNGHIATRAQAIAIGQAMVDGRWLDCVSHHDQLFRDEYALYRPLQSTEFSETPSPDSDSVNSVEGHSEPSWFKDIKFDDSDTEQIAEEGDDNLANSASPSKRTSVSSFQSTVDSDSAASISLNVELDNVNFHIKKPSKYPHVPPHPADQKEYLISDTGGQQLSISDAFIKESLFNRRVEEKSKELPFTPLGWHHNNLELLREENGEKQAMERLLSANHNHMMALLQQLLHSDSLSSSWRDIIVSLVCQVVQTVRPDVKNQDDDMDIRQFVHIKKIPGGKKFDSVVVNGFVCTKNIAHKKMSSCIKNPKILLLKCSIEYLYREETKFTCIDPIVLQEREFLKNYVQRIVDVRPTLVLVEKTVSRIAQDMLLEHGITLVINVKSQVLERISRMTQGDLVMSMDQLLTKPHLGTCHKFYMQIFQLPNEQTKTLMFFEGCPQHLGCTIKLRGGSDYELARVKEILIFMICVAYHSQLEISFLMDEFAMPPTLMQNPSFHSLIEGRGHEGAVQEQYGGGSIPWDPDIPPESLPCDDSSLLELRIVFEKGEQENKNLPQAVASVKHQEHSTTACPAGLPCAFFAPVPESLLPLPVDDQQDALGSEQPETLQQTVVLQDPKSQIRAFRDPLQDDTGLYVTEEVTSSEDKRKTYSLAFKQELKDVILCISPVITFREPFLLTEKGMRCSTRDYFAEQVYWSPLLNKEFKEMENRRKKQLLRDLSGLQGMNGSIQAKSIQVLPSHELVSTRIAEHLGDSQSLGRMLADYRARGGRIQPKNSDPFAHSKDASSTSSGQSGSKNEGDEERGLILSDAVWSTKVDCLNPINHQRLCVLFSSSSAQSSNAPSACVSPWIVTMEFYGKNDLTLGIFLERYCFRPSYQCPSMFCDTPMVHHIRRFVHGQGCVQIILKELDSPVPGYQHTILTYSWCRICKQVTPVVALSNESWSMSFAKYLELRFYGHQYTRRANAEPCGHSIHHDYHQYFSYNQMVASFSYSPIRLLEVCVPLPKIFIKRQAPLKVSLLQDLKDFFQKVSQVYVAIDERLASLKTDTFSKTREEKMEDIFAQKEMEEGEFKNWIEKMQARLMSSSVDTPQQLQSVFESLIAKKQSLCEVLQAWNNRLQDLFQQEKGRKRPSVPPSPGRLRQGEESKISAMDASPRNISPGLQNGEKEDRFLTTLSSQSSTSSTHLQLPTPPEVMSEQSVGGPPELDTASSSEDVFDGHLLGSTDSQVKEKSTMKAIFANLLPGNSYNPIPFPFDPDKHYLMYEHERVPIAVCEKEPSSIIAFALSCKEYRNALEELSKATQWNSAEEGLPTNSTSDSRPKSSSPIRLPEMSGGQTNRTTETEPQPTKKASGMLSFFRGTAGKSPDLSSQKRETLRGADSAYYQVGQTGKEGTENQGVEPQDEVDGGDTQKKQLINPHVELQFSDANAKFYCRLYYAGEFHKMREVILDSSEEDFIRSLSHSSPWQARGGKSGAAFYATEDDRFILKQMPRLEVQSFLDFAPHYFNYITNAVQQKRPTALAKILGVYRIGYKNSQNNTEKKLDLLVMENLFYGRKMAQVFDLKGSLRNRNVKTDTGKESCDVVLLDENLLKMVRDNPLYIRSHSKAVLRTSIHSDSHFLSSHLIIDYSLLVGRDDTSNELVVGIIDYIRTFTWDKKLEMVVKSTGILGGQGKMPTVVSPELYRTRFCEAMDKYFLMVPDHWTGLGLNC

Compound | autophagic flux [1] | number of nonacidic autophagosomes [2] | accumulation of LAMP1 or LAMP1-positive lysosomes [3] | ACE2-mediated endocytosis triggered by spike-RBD [4] | Kd [5] [nM] | pseudotyped virus entry [6] | green-to-red ratio of fluorescent spots relative to mock-treated sample [7] [fold] | proteolytic cleavage (maturation) of cathepsin D [8] | reduction in the levels of the viral NP gene (viral genome copies) [9] | IC50 ([6]; Severe acute respiratory syndrome coronavirus 2, 293T/ACE2, read-out: concentration that inhibited spike-mediated viral entry by 50% compared to maximal inhibition) [nM]
c1ccc(-c2cc(Nc3nc(-c4ccncc4)nc4ccccc34)n[nH]2)cc1 [UNI418, N -(5-phenyl-1 H -pyrazol-3-yl)-2-(4-pyridinyl)-4-quinazolinamine] | markedly inhibited | considerably increased | did not cause the accumulation | successfully inhibited | 0.78 | markedly inhibited | 6.3 | considerably inhibited | approximately 2 log | –
Cc1cccc(/C=N/Nc2cc(N3CCOCC3)nc(OCCc3ccccn3)n2)c1 [apilimod] | – | – | – | did not obviously inhibit | – | – | 2.2 | largely inhibited | approximately 2 log | 5
